The values that follow come from publication PMC3256212, “Mechanism and Function of Drosophila capa GPCR: A Desiccation Stress-Responsive Receptor with Functional Homology to Human NeuromedinU Receptor” (PLoS ONE, 2012).

Peptide text beside a SMILES is read from it.

The target of this assay is T1, capaR (CG14575) (Drosophila melanogaster, UniProt Q8ITC7).
T1 construct: The ORF of capaR was amplified from whole fly cDNA as template; expressed in transfected cells; host or cells: Drosophila S2 cells (pMT/V5-His TOPO, CuSO4 induction)
T1 sequence (Q8ITC7 1-477): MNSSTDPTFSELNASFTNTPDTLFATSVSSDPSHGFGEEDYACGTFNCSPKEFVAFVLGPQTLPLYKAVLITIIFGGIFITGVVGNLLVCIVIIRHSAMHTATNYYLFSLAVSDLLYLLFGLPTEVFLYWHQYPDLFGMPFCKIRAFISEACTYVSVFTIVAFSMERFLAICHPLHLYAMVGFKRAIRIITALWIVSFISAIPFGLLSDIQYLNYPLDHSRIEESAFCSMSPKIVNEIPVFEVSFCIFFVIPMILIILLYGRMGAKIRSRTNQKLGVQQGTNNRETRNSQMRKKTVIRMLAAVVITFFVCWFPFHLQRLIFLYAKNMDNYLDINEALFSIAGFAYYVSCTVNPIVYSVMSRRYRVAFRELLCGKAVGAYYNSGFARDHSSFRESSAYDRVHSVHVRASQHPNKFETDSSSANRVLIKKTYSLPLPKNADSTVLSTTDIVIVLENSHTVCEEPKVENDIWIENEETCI
Put plainly: [Ca2+]i (aequorin) in capaR-transfected S2 cells. The class given is cell-based. The following applies: capaR S2 cells; N = 3 (Fig. 3D); read-out: EC50, [Ca2+]i via capaR. The text has this: The ORF of capaR was amplified from whole fly cDNA as template using the primers 5′-[…]-3′ and 5′-[…]-3′ and cloned into pMT/V5-His TOPO vector (Invitrogen). The eYFP ORF was fused in-frame at the C-terminus of the capaR using KpnI and ApaI sites and the tagged construct was cloned into the pMT/V5-His TOPO vector.
The capa peptides Drm-capa-1 (GANMGLYAFPRVamide), Drm-capa-2 (ASGLVAFPRVamide), Drm-PK-1 (TGPSASSGLWFGPRLamide), Drm-PK-2 (SVPFKPRLamide) and hugin gamma (hugg, pQLQSNGEPAYRVRTPRL-amide) were synthesised as C-terminally amidated peptides (Biomatik Corporation, Canada). Peptides were dissolved in distilled ACN/H2O to a concentration of 1 mM and then diluted to the required working concentration in Schneider's medium (Invitrogen Inc.). Human neuromedin U-25 was purchased from Sigma. Rabbit polyclonal antibody to porcine neuromedinU-8 was purchased from Progen biotechnik (Heidelberg, Germany). Rabbit capa precursor peptide used was described in [21] Rabbit anti-peptide antibody was raised against the capaR epitope (CQQGTNNRETRNSQM) by Genosphere Biotechnologies (Paris, France) and purified on a HiTrap NHS-activated HP column (Amersham Pharmacia Bio-tech; Buckinghamshire, UK) according to the manufacturer's instructions. Immunohistochemistry was carried out as described previously. Mouse anti-GFP primary antibody (Zymed) and the antiserum to neuromedinU-8 were all diluted 1∶1000 or, in the case of the pre-immune serum, the affinity-purified capaR antibody and the antiserum to the capa precursor peptide, 1∶500. Incubations in the primary antibodies were performed overnight. A FITC-conjugated affinity-purified goat anti-mouse antibody (Jackson Immunologicals) was used in a dilution of 1∶1,000 for visualization of the mouse monoclonal anti-GFP. A Texas red-conjugated affinity-purified goat anti-rabbit antibody (Jackson Immunologicals) was used at a dilution of 1∶1,000 for visualization of the rabbit capaR antiserum.
Drosophila S2 cells, cultured under standard conditions were transiently transfected with the apoaequorin ORF [21] and a receptor ORF construct, and expression induced using CuSO4. Transfected S2 cells were harvested and incubated with 2.5 µM coelenterazine in the dark at RT for 1–2 h as previously described. 25,000 cells were then placed in 135 µl Schneider's medium supplemented with 10% FCS in a well of a white polystyrene 96-well plate (Berthold Technologies). Bioluminescence recordings were carried out using a Mithras LB940 automated 96-well plate reader (Berthold Technologies) and MikroWin software. 15 µl of each of different peptides were applied to final concentrations as required. At the end of each recording samples were disrupted by the addition of 100 µl lysis solution, and the [Ca^2+] concentrations calculated as previously described. For assays in Ca^2+-free medium, transfected cells were collected and pelleted after incubation with coelenterazine. Cell pellets were re-suspended in Ca^2+-free Schneider's medium (Invitrogen Inc.) without FCS and collected by centrifugation. The washing and pelleting procedure was repeated once more. Experiments were then carried out on 25,000 cells per sample as above. To verify whether the observed calcium signal was linked to phospholipase C (PLC) activation, S2-capaR cells were preincubated with the PLC inhibitor U73122 at concentration of 10^−3 M to 10^−8 M for 10 min. Luminometry experiments were carried out on live, intact tubules expressing a targeted transgene for cytosolic-targeted apoaequorin in either principal or stellate cells as previously described, [22]. For in vivo tubule experiments, flies of the following genotypes were used: c42aeq, capaR-GAL4, UAS-capaR, UAS-capaR RNAi, UAS-NMUR 2 and the resulting progeny from GAL4>UAS crosses.

Usually EC50 stands for the midpoint of the concentration-response curve.

Regarding `CC(C)C[C@H](NC(=O)[C@H](Cc1ccccc1)NC(=O)[C@H](Cc1ccc(O)cc1)NC(=O)CNC(=O)[C@H](CCCNC(=N)N)NC(=O)[C@H](CO)NC(=O)[C@H](CCC(N)=O)NC(=O)[C@H](CO)NC(=O)[C@H](C)NC(=O)[C@H](Cc1ccccc1)NC(=O)[C@@H]1CCCN1C(=O)[C@H](CO)NC(=O)[C@H](CCC(N)=O)NC(=O)[C@H](Cc1ccccc1)NC(=O)[C@H](CCC(=O)O)NC(=O)[C@H](CCC(=O)O)NC(=O)[C@H](CC(=O)O)NC(=O)[C@@H](NC(=O)[C@H](CCCNC(=N)N)NC(=O)[C@@H](N)Cc1ccccc1)C(C)C)C(=O)N[C@@H](Cc1ccccc1)C(=O)N[C@@H](CCCNC(=N)N)C(=O)N1CCC[C@H]1C(=O)N[C@@H](CCCNC(=N)N)C(=O)N[C@@H](CC(N)=O)C(N)=O` [NMU-25, reference compound] (H-FRVDEEFQSPFASQSRGYFLFRPRN-NH2), the EC50 came out at 21.8 nM.
